Where two headings read alike, the source gives them in different places.
Assays:
Cdk1/cycB = Cdk1/cycB (UniProt P06493); experiment: Cdk1/cycB kinase assay, histone H1 substrate; type: biochemical, starfish
Protocol: The inhibition of Cdk1 can be determined as follows: Cdk1/cycB: Cdk1/cycB are obtained from ProQinase, Freiburg, Germany. Starfish oocytes are induced to enter M phase of the cell cycle with 10 μM 1-methyladenine and frozen in liquid nitrogen and stored at −80° C. […] Briefly, the supernatant from oocytes is equilibrated for 30 min at 4° C. under constant rotation with the p9^CKShs-sepharose beads. The beads are extensively washed and active cdk1/cycB kinase is eluted with purified p9^CKShs (3 mg/ml). […] The assay is carried with slight modifications in 96-well plates at ambient temperature for 20 min. […] The reaction is terminated by addition of 25 μl 0.05 M EDTA pH 7.0. An aliquot of 40 μl is spotted with a multichannel dispenser on Immobilon P membranes mounted in a Millipore Microtiter filter manifold connected to a low vacuum source. After elimination of liquid, the membrane is transferred to a sequence of 4 washing baths containing 0.5% H3PO4 and one with EtOH (shaking incubation for 10 min each), dried, mounted onto a Hewlett Packard TopCount manifold added 10 μl Microscint® and counted. […] Cells were seeded at 2.5×10^7 cells per 150 mm dish and allowed to attach to a 150 mm dish for 1 hr at RT. Media (SF900II containing 10% FBS) is aspirated and recombinant baculovirus; GST-C-Raf-1, v-Ras and v-Src are added at MOI of 3.0, 2.5 and 2.5 receptively in a total volume of 4-5 mL. Cells are incubated for 1 hr at RT and then 15 mL of medium is added. Infected cells are incubated for 48-72 hr at 27° C. Infected Sf21 cells are scraped and collected into a 50 mL tube and centrifuged for 10 min at 4° C. at 1100 g in a Sorvall centrifuge. The cell pellet is washed once with ice cold PBS and lysed with 0.6 mL lysis buffer per 2.5×10^7 cells. Complete lysis of cells is achieved after 10 min on ice with occasional pipetting. […] GST-c-Raf-1 was allowed to bind to the beads at 4° C. for 1 hr with rocking. Bound GST-c-Raf-1 with beads was transferred to a column. The column is washed once with lysis buffer and twice with ice cold Tris buffered saline. Ice cold elution buffer is added and column flow is stopped to allow the free glutathione to disrupt the interaction of GST-c-Raf-1 with glutathione sepharose beads. Fractions (1 mL) are collected into pre-chilled tubes. Each tube contains 10% glycerol (final concentration) to maintain kinase activity during freeze thaw cycles. Purified fractions of GST-c-Raf-1 kinase protein are stored at −80° C.

HER-1 = HER-1 (Homo sapiens, UniProt P00533); experiment: HER-1 kinase inhibition; type: biochemical; conditions: Table 5; read-out: HER-1, IC50 class
Tek = biological target: T1, Tek (Homo sapiens, UniProt Q02763); experiment: Tek kinase inhibition, GST-fused kinase domain; type: biochemical; conditions: Table 5; read-out: Tek, IC50 class
T1 construct: N-terminally GST-fused (pAcG1, Pharmingen) KDR, Flt-1, Flk-1, Tek and PDGFR-β kinase domains are obtained from ProQinase, Freiburg, Germany; host or cells: Sf9 or High Five (baculovirus)
Description: The inhibition of IGF-1R and Ins-R can be determined as follows: The baculovirus donor vector pfbgx3IGFIRcd is used to generate a recombinant baculovirus that expresses the amino acid region 950-1337 of the mature peptide cytoplasmic domain of the human IGF-IR. To generate the cDNA fragment encoding the amino acid region 919-1343 of the intra-cytoplasmic kinase domain of the human insulin receptor, pC5hInsR is used. The fragments of the human IGF-IR and Ins-R are cloned, expressed and small-scale purified as a factor Xa-cleavable glutathione-S-transferase (GST)-fusion protein using the Bac-to-Bac™ system (GIBCO BRL) of recombinant baculovirus generation. Virus containing media is collected from the transfected cell culture and used for infection to increase its titer. Virus containing media obtained after two rounds of infection is used for large-scale protein expression. Cell extracts are prepared and loaded onto a glutathione-Sepharose (Pharmacia) column. After washing, the GST-tagged proteins are then eluted with a glutathione-containing buffer. Purified protein is stored at −70° C. in elution buffer. Tyrosine protein kinase assays with purified GST-IGF-1R and GST-ins-R are carried in a final volume of 30 μl containing 20 mM Tris-HCl, pH 7.6, 10 mM MgCl2, 0.01 mM Na3VO4, 1% DMSO, 1 mM DTT, 3 μg/ml poly(Glu,Tyr) 4:1 and 10 μM ATP (γ-[^33P]-ATP 0.1 μCi). The assay is performed in 96-well plates at ambient temperature for 20 min and terminated by addition of 25 μl 0.05 M EDTA pH 7.0. An aliquot of 40 μl is spotted with a multichannel dispenser on Whatman P81 membranes mounted in a Millipore Microtiter filter manifold connected to a low vacuum source. After elimination of liquid, the membrane is transferred to a sequence of 4 washing baths containing 0.5% H3PO4 and one with EtOH (shaking incubation for 10 min each), dried, mounted onto a Hewlett Packard TopCount manifold added 10 μl Microscint® and counted. Compounds of formula (I) show up to 90% inhibition of Ins-R at 10,000 nM, preferably between 60-90% inhibition. The inhibition of Tek can be determined as follows: The procedure of the expression, purification and assay these kinases has been described. Fabbro et al., Pharmacol. Ther. 82(2-3) 293-301 (1999). In brief, the glutathione S-transferase (GST) gene from the pAcG1 vector (Pharmingen) is excised with EcoRV and EcoRI and inserted into the cloning site of the Fast-Bac baculoviral vector (GIBCO) creating a 5530 bp vector with N-terminal cloning sites derived from the pAcG1 fusion vector (FBG0). The C-terminal cloning site may be any cloning site (from the Fast-Bac vector) downstream of the N-terminal cloning site used. N-terminally GST-fused (pAcG1, Pharmingen) KDR, Flt-1, Flk-1, Tek and PDGFR-β kinase domains are obtained from ProQinase, Freiburg, Germany. Tek is recloned into the FBG1 vector by EcoRI excision and ligation into EcoRI digested FBG1 (FBG1-Tek). The coding sequences for the whole cytoplasmic domain of c-Kit (aa 544-976) and c-Fms (aa 538-972) are amplified by PCR from human uterus and from human bone marrow cDNA libraries (Clontech), respectively. The amplified DNA fragments are fused to GST by cloning them into FBG1 as BamHI-EcoRI insertions, to yield FBG1-c-Kit and FBG1-c-Fms. Tek is recloned into the FBG0 transfer vector by EcoRI excision and ligation into EcoRI digested FBG0 (FBG-Tie2/Tek). FGFR-1 and c-met kinase domains are obtained by PCR from human A431 cells. N-terminal primers contain an overhanging EcoRI site, while C-terminal primers contain a XhoI site to aid cloning into the transfer vectors. After digestion of both the PCR fragments and FBG0 the cleavage products are gel-purified and ligated together to form the kinase constructs (FBG-Met, FBG-FGFR-1).
Viruses for each of the kinases are made according to the protocol supplied by GIBCO. […]

[1] = Table 4, read-out: Cdk1, activity (IC50 for kinase inhibition)
[2] = Table 5, read-out: CDK1/B, IC50 class

T1 sequence (Q02763 824-1096 limits assumed, species assumed): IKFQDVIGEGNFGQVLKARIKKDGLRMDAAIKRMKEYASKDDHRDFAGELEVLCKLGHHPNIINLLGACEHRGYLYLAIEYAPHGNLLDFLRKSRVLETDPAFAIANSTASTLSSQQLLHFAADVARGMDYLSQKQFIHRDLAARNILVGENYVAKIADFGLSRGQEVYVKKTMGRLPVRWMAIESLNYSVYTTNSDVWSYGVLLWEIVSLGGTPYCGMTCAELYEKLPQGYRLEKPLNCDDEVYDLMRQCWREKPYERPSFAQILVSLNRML
Chain of HER-1 (P00533 25-1210, species assumed): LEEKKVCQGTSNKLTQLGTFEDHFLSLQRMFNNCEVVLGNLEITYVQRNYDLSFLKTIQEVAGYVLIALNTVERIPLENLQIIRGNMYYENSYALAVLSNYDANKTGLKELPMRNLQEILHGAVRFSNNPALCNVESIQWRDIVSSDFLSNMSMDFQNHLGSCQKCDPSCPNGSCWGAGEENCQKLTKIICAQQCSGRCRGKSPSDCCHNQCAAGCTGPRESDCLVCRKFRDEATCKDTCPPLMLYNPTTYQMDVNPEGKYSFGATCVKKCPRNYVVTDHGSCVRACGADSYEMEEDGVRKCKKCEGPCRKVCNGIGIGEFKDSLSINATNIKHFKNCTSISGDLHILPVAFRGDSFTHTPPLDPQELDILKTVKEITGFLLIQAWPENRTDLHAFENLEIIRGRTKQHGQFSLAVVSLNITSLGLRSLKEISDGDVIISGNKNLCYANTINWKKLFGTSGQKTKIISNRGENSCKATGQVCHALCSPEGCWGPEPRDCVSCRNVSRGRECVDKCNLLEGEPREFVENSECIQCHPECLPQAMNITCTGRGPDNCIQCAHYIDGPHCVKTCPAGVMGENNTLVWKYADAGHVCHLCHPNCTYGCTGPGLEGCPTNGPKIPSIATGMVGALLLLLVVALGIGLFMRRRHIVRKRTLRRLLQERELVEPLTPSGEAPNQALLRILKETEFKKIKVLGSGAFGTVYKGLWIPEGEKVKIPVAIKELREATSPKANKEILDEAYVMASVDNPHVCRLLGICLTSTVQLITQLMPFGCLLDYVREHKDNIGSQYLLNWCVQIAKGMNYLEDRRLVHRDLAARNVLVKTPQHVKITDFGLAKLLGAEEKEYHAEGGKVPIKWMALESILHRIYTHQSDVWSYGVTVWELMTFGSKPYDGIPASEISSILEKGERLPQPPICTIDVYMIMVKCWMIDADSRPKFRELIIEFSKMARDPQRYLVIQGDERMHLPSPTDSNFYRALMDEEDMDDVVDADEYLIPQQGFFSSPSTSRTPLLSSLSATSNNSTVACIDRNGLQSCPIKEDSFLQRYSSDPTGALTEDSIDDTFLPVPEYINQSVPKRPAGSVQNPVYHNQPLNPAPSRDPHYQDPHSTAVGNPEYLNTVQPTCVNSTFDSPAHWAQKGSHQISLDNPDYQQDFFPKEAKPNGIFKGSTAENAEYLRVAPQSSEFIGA

Compound	IC50 (Cdk1/cycB; [1])	IC50 (Cdk1/cycB; [2])	IC50 (HER-1)	IC50 (Tek)
COc1cccc(-c2cnn3c(N)c(-c4cccc(O)c4)cnc23)c1 [Example 60, 3-[7-Amino-3-(3-methoxy-phenyl)-pyrazolo[1,5-a]pyrimidin-6-yl]-phenol]	< 10 µM			
Cc1nc2c(-c3cccc(N4CCN(C)CC4)c3)cnn2c(N)c1-c1cccc(Cl)c1 [Example 72, 6-(3-Chloro-phenyl)-5-methyl-3-[3-(4-methyl-piperazin-1-yl)-phenyl]-pyrazolo[1,5-a]pyrimidin-7-ylamine]		> 10 µM	1 to 10 µM	1 to 10 µM
COc1cc(N2CCN(C)CC2)ccc1-c1cnn2c(N)c(-c3cccc(O)c3)cnc12 [Example 76, 3-{7-Amino-3-[2-methoxy-4-(4-methyl-piperazin-1-yl)-phenyl]-pyrazolo[1,5-a]pyrimidin-6-yl}-phenol]		> 10 µM	< 1 µM	< 1 µM
CN1CCN(c2ccc(-c3cnn4c(N)c(-c5ccccc5Cl)cnc34)cc2)CC1 [Example 77, 6-(2-Chloro-phenyl)-3-[4-(4-methyl-piperazin-1-yl)-phenyl]-pyrazolo[1,5-a]pyrimidin-7-ylamine]				< 1 µM
CN1CCN(c2cccc(-c3cnn4c(N)c(-c5ccccc5Cl)cnc34)c2)CC1 [Example 78, 6-(2-Chloro-phenyl)-3-[3-(4-methyl-piperazin-1-yl)-phenyl]-pyrazolo[1,5-a]pyrimidin-7-ylamine]				1 to 10 µM
Cc1nc2c(-c3ccc(N4CCN(C)CC4)cc3)cnn2c(N)c1-c1ccc(F)cc1 [Example 79, 6-(4-Fluoro-phenyl)-5-methyl-3-[4-(4-methyl-piperazin-1-yl)-phenyl]-pyrazolo[1,5-a]pyrimidin-7-ylamine]		> 10 µM	1 to 10 µM	> 10 µM
Cc1nc2c(-c3cccc(N4CCN(C)CC4)c3)cnn2c(N)c1-c1ccc(F)cc1 [Example 80, 6-(4-Fluoro-phenyl)-5-methyl-3-[3-(4-methyl-piperazin-1-yl)-phenyl]-pyrazolo[1,5-a]pyrimidin-7-ylamine]		> 10 µM	> 10 µM	1 to 10 µM
Cc1nc2c(-c3cccc(N4CCN(C)CC4)c3)cnn2c(N)c1-c1ccc(F)c(Cl)c1 [Example 82, 6-(3-Chloro-4-fluoro-phenyl)-5-methyl-3-[3-(4-methyl-piperazin-1-yl)-phenyl]pyrazolo[1,5-a]pyrimidin-7-ylamine]		> 10 µM	> 10 µM	> 10 µM
Cc1nc2c(-c3cccc(N4CCN(C)CC4)c3)cnn2c(N)c1-c1cccc(Br)c1 [Example 84, 6-(3-Bromo-phenyl)-5-methyl-3-[3-(4-methyl-piperazin-1-yl)-phenyl]-pyrazolo[1,5-a]pyrimidin-7-ylamine]		> 10 µM	> 10 µM	> 10 µM
CN1CCN(c2cccc(-c3cnn4c(N)c(-c5cccc(Br)c5)cnc34)c2)CC1 [Example 86, 6-(3-Bromo-phenyl)-3-[3-(4-methyl-piperazin-1-yl)-phenyl]-pyrazolo[1,5-a]pyrimidin-7-ylamine]		> 10 µM	> 10 µM	1 to 10 µM
COc1ccc(-c2cnn3c(N)c(-c4cccc(Cl)c4)c(C)nc23)cc1 [Example 88, 6-(3-Chloro-phenyl)-3-(4-methoxy-phenyl)-5-methyl-pyrazolo[1,5-a]pyrimidin-7-ylamine]		> 10 µM	> 10 µM	> 10 µM

Next, values leading:

IC50 (Cdk1/cycB; [1])	IC50 (Cdk1/cycB; [2])	IC50 (HER-1)	IC50 (Tek)	Compound
< 10 µM				Nc1c(-c2cccc(O)c2)cnc2c(-c3cccnc3)cnn12 [Example 46, 3-[7-Amino-3-pyridin-3-yl-pyrazolo[1,5-a]pyrimidin-6-yl]-phenol]
	> 10 µM	1 to 10 µM	1 to 10 µM	Cc1nc2c(-c3ccc(N4CCN(C)CC4)cc3)cnn2c(N)c1-c1cccc(Cl)c1 [Example 73, 6-(3-Chloro-phenyl)-5-methyl-3-[4-(4-methyl-piperazin-1-yl)-phenyl]-pyrazolo[1,5-a]pyrimidin-7-ylamine]
	> 10 µM	> 10 µM	< 1 µM	Cc1nc2c(-c3cccc(N4CCN(C5CCN(C)CC5)CC4)c3)cnn2c(N)c1-c1cccc(Cl)c1 [Example 81, 6-(3-Chloro-phenyl)-5-methyl-3-{3-[4-(1-methyl-piperidin-4-yl)-piperazin-1-yl]-phenyl}-pyrazolo[1,5-a]pyrimidin-7-ylamine]
	> 10 µM	> 10 µM	> 10 µM	Cc1nc2c(-c3ccc(N4CCN(C)CC4)cc3)cnn2c(N)c1-c1ccc(F)c(Cl)c1 [Example 83, 6-(3-Chloro-4-fluoro-phenyl)-5-methyl-3-[4-(4-methyl-piperazin-1-yl)-phenyl]-pyrazolo[1,5-a]pyrimidin-7-ylamine]
	> 10 µM	> 10 µM	> 10 µM	CN1CCN(c2cccc(-c3cnn4c(N)c(Cc5cccc(Br)c5)cnc34)c2)CC1 [Example 85, 6-(3-Bromo-benzyl)-3-[3-(4-methyl-piperazin-1-yl)-phenyl]pyrazolo[1,5-a]pyrimidin-7-ylamine]
	> 10 µM	> 10 µM	> 10 µM	Cc1nc2c(-c3cccc(N4CCOCC4)c3)cnn2c(N)c1-c1cccc(Cl)c1 [Example 87, 6-(3-Chloro-phenyl)-5-methyl-3-(3-morpholin-4-yl-phenyl)-pyrazolo[1,5-a]pyrimidin-7-ylamine]
